Source: publication PMC4418665, “Cyclization of the Urokinase Receptor-Derived Ser-Arg-Ser-Arg-Tyr Peptide Generates a Potent Inhibitor of Trans-Endothelial Migration of Monocytes” (PLoS ONE, 2015)
Peptide text beside a SMILES is read from it.

What was measured:
[1] = target: T1, FPR1 (Homo sapiens, UniProt P21462); assay: Ligand binding assay, competition with FITC-fMLF at 4°C, RBL-2H3/ETFR cells; parameters: expressed in transfected cells; conditions: 100 nM peptide pre-incubated 60 min at 4°C, then 10 nM FITC-fMLF 60 min at 4°C; cell-associated fluorescence; triplicates
T1 sequence (P21462 1-350): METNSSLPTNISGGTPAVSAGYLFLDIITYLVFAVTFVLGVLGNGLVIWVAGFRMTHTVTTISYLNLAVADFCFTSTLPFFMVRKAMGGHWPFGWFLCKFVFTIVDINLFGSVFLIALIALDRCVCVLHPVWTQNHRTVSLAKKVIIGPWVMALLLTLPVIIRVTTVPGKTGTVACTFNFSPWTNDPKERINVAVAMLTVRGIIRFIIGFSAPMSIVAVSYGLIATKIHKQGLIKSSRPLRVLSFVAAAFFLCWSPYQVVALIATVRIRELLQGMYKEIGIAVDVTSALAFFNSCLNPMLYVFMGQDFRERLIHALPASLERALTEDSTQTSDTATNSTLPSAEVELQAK
Protocol: (§1) We have previously documented that SRSRY competes with the bacterial-derived N-formyl-methionyl-leucyl-phenylalanine peptide (fMLF) for binding to FPR type 1 (FPR1) and that both SRSRY and fMLF promote cell migration by triggering FPR1 internalization. […] Quantification of cell-associated fluorescence was assessed by reading cell lysates with a fluorescence plate reader. RBL-2H3 cells lack FPR1, thus they display very low uptake that was not saturable with unlabeled fMLF (Fig 2A). […] To evaluate the effect of [SRSRY] on agonist-dependent FPR1 internalization, binding experiments were performed at 37°C. […] Thus, we assessed whether [SRSRY] elicits effects on fMLF-directed cell migration. RBL-2H3/ETFR cell migration toward 10 nM fMLF was monitored in real-time for 4 hours as Cell Index changes due to the adhesion of migrating cells to microelectrodes using the xCELLigence RTCA technology as previously described. […]
(§2) Fig 2 Both linear and cyclic SRSRY peptides bind to FPR1. […] Fluorimetric measurement of cell-associated fluorescence was assed using 485 nm excitation and 535 nm emission filters. Data are expressed as a percentage of the fluorescence associated to RBL-2H3 cells exposed to FITC-fMLF alone (CTL = 100%) and represent a mean ± SD from triplicates. *Statistical significance (t-test) against None with p<0.001. […] Cell migration of RBL-2H3/ETFR cells monitored by the xCELLigence system. […]

[2] = target: T1, FPR1; assay: Agonist-dependent FPR1 internalization at 37°C, fluorescence microscopy, RBL-2H3/ETFR cells; format: cell-based; parameters: expressed in transfected cells; conditions: 100 nM peptide 30 min at 37°C, then 10 nM FITC-fMLF 30 min at 37°C
Protocol: as §1, §2

Row | SMILES | binding of FITC-fMLF to RBL-2H3/ETFR cells [1] | agonist-dependent FPR1 internalization in RBL-2H3/ETFR cells [2]
1 | N=C(N)NCCC[C@H](NC(=O)[C@H](CO)NC(=O)[C@H](CCCNC(=N)N)NC(=O)[C@@H](N)CO)C(=O)N[C@@H](Cc1ccc(O)cc1)C(N)=O [SRSRY, H-Ser-Arg-Ser-Arg-Tyr-NH2] (H-SRSRY-NH2) | reduced to the basal level | prevented
2 | N=C(N)NCCC[C@@H]1NC(=O)[C@H](CO)NC(=O)[C@H](Cc2ccc(O)cc2)NC(=O)[C@H](CCCNC(=N)N)NC(=O)[C@H](CO)NC1=O [[SRSRY], [Ser-Arg-Ser-Arg-Tyr]] (cyclo(RSRYS)) | inhibits binding of fluorescent agonist to RBL-2H3/ETFR cells to a similar extent as compared to fMLF or SRSRY | prevented agonist-dependent FPR1 internalization
